Assay [1] concerns neutrophil and macrophage recruitment. The experiment in a line: Thioglycollate induced murine model of peritoneal inflammation. The format is in vivo, mouse. The following applies: C57BL mice. As for the experimental part: Acute inflammation was induced in a mouse model by thioglycollate injection into the peritoneal cavity.
Thioglycollate induced murine model of peritoneal inflammation. Mice (C57BL, male, 6-8 weeks old) were injected intraperitoneally with 2 mL of 3% thioglycollate broth. Five minutes later, animals received intravenous injections of 0.2 mL sterile pyrogen-free saline (S) with and without heparin (H) or analogs (3c) (0.5 mg/mouse with 0.2 ml saline). Mice were sacrificed after 3 hours and peritoneal cells harvested by lavage with 8 mL of ice-cold phosphate buffered saline (PBS) containing 3 mM EDTA. Peritoneal cells were counted and cells stained for 30 minutes at 4° C. with FITC-conjugated rat anti-mouse Gr-1 mAb diluted in PBS containing 2.5% FBS. After washing three times with PBS, FACScan analysis was performed as described by Wang et al. (2002) and was used to sort, count and analyze the percentage of neutrophils and macrophages which were converted to the cell number using the formula N/M=Total cell number X % of NIM, respectively (N:Neutrophil; M: Macrophages). The cells were gated (FACS) expressing a high level of Gr-1 antigen (N) and Mac-1 (M). (See additional ref: Lagasse; E., Weissman; I. J. Immunological Meth. 1996, 197, 139-150). Statistical differences among groups were analyzed by ANOVA method using StatView software.

Assay [2] has as its system E-selectin. The experiment in a line: U937 cell adhesion to immobilized E-selectin. The format is cell-based. The following applies: immobilized E-selectin chimera. The method, then: U937 cell binding to immobilized E-, L- or P-selectin. […] After blocking the plate with 10% BSA in PBS, P-selectin (0.05 μg/well), L-selectin (4 μg/well) or E-selectin (1 μg/well) chimeras were added. After 1 hr, wells were washed with blocking solution. U937 cells were grown in RPMI-1640 medium (containing 10% fetal bovine serum (FBS), 100 U/ml penicillin and 100 μg/ml streptomycin in an atmosphere of 5% CO2 in air and 100% relative humidity. The cells were fluorescently labeled with 10 μM calcein AM in RPMI 1640 medium containing 2.5% FBS for 30 min at 37° C. The cells were collected by low speed centrifugation, washed three times with RPMI 1640 medium, and resuspended at a density of 2×10^6 cells/mL in medium without FBS. Heparin and test compounds, or 10 mM sodium EDTA (negative control) were added at 50 μL/well, and then the fluorescently labeled U937 cell suspension (50 μL/well) was added and incubated for 30 min at room temperature. Non-adherent cells were removed by rinsing the plates three times with PBS, and the number of adherent cells was quantified by measuring the fluorescence intensity at 485 nm after […] 2% Triton X-100 in 0.1 M Tris-HCl, pH 9.5. Raw data were converted to relative fluorescence intensity (RFI) for comparative purposes.

Take heparin: the “in vivo activity on inflammatory cell recruitment (in words)” value in assay [1] was “inhibited inflammatory cell recruitment to a similar degree”. Also, the “inhibitory activity toward E-selectin (U937 cell adhesion)” value in assay [2] is listed as “Neither heparin nor 3c exhibited substantial inhibitory activity”.

The values above are taken from patent US20080268013A1, “Polyethylene Oxide Polymers Including Anti-Inflammatory Glycodendrons” (EMORY UNIVERSITY, priority 2005, published 2008).
